Results on two molecules are retold here after article PMC7939386 (The Journal of Biological Chemistry, 2021).

Assay [1] concerns the target T1, KIF1A-406 (Rattus norvegicus, UniProt F1M4A4).
T1 construct: motor head and neck linker, residues 1-368, followed by 61 residues of Drosophila melanogaster KHC neck coil (printed 'residues 445-405', probably 345-405) for dimerization; C-terminal His6; E. coli-type bacterial expression; homodimer
T1 sequence (F1M4A4 1-368): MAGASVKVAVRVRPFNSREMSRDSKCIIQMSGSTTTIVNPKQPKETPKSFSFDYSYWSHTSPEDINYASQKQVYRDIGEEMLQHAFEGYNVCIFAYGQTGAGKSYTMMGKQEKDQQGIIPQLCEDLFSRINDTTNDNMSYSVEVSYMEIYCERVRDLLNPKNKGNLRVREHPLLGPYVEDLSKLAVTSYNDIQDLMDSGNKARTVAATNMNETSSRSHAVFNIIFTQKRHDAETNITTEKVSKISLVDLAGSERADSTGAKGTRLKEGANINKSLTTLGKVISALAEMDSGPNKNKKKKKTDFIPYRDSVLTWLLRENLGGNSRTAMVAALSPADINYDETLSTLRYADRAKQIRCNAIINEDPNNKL
Description: stopped-flow dissociation, ADP-bound motor flushed against […] mADP. Particulars: no microtubules; BRB80, pH 6.9, 25 °C; b26 prints the error as ± 0.005. The format is binding.

A further assay deals with T2, KIF1A-560-GFP (Rattus norvegicus, UniProt F1M4A4).
T2 construct: motor head and neck linker, residues 1-368, followed by Drosophila melanogaster KHC neck coil and coil-1 (216 residues by b8; b50 says additional 216 residues), C-terminal GFP and His6; bacterial expression; homodimer
T2 sequence (F1M4A4 1-368): T1 sequence (F1M4A4 1-368)
Description: single-molecule TIRF microtubule off-rate versus [ADP], hyperbolic fit. The format is binding. The settings on record: motor bound to Taxol-stabilized microtubules; BRB80 (80 mM PIPES, pH 6.9), 25 °C; fit ± 95% CI; authors equate K0.5 with KD.

The target of assay [2] is T1, KIF1A-406. Description: stopped-flow nucleotide-triggered half-site release of mADP, Michaelis-Menten fit. The format is biochemical. Particulars: one-head-bound complex with 3 μM Taxol-stabilized microtubules, mADP in tethered head; BRB80 (80 mM PIPES, 1 mM MgCl2, pH 6.9), 25 °C; fit ± 95% CI; read-out: Experimental.

Turning to `Nc1ncnc2c1ncn2[C@@H]1O[C@H](COP(=O)(O)OP(=O)(O)O)[C@@H](O)[C@H]1O` [ADP], on KIF1A-406 [1], the “mADP dissociation rate constant” value was 0.26 ± 0.001 s⁻¹. This molecule came in with a Kd on KIF1A-560-GFP of 93 ± 204 µM. On to `Nc1ncnc2c1ncn2[C@@H]1O[C@H](COP(=O)(O)OP(=O)(O)OP(=O)(O)O)[C@@H](O)[C@H]1O` [ATP], for which, on KIF1A-406 [2], the Km is 119 ± 21 µM.
